Source: article PMC9151520 (Archives of Toxicology, 2022)
“And” between values parts separate entries of the source, which are not always exact repeats. Equal entries are not always repeated. Where two headings read alike, the source gives them in different places.

Tests used:
[1] = tested on: p53 signaling (p53RE-bla HCT-116 cells); assay: cells; type: cell-based
[2] = tested on: p53 signaling (p53RE-bla HCT-116 cells)
[3] = tested on: p53 signaling (p53RE-bla HCT-116 cells); remark: listed apart in the source
[4] = read-out: EC50, p53 activation, cherry pick confirmation

| Structure (SMILES) | p53 activation efficacy, cherry pick confirmation [1] | p53 activation EC50, cherry pick confirmation [2] | p53 activation EC50, primary screening [2] | p53 activation efficacy, cherry pick confirmation [2] | p53 activation efficacy, primary screening [2] | p53 activation EC50, cherry pick confirmation [3] | p53 activation EC50, primary screening [3] | p53 activation efficacy, cherry pick confirmation [3] | p53 activation efficacy, primary screening [3] | EC50, p53 activation, cherry pick confirmation [1] | Efficacy, p53 activation, cherry pick confirmation [1] | EC50, p53 activation, cherry pick confirmation [2] | EC50, p53 activation, primary screening [2] | Efficacy, p53 activation, cherry pick confirmation [2] | EC50, viability, cherry pick confirmation (p53RE-bla HCT-116 cells) | EC50, viability, primary screening (p53RE-bla HCT-116 cells) | Efficacy, viability, cherry pick confirmation (p53RE-bla HCT-116 cells) | Efficacy, viability, primary screening (p53RE-bla HCT-116 cells) | EC50, p53 activation, cherry pick confirmation [3] | Efficacy, p53 activation, cherry pick confirmation [3] | also measured |
| --- | --- | --- | --- | --- | --- | --- | --- | --- | --- | --- | --- | --- | --- | --- | --- | --- | --- | --- | --- | --- | --- |
| CN(C)c1ccc(C(=O)c2ccc(N(C)C)cc2)cc1 [Michler's ketone] | inactive | inactive | inactive | inactive | inactive | inactive | inactive | inactive | inactive |  |  |  |  |  |  |  |  |  |  |  | p53 activation EC50, cherry pick confirmation [1]: inactive; EC50 ([1]; Homo sapiens, HCT-116, read-out: p53 activation EC50, primary screening): 2.8 µM; Emax ([1]; Homo sapiens, HCT-116, read-out: p53 activation efficacy, primary screening): 37.9%; Viability EC50, cherry pick confirmation (p53RE-bla HCT-116 cells): inactive; Viability EC50, primary screening (p53RE-bla HCT-116 cells): inactive; Viability efficacy, cherry pick confirmation (p53RE-bla HCT-116 cells): inactive; Viability efficacy, primary screening (p53RE-bla HCT-116 cells): inactive |
| COC1=CC(=O)C[C@@H](C)[C@]12Oc1c(Cl)c(OC)cc(OC)c1C2=O [Griseofulvin] |  |  |  |  |  |  |  |  |  | inactive | inactive | inactive | inactive | inactive | inactive | inactive | inactive | inactive | inactive | inactive | EC50 ([1]; Homo sapiens, HCT-116, read-out: EC50, p53 activation, primary screening): 36.3 µM; Emax ([1]; Homo sapiens, HCT-116, read-out: Efficacy, p53 activation, primary screening): 41.2%; Efficacy, p53 activation, primary screening [2]: inactive; EC50, p53 activation, primary screening [3]: inactive; Efficacy, p53 activation, primary screening [3]: inactive |
| [F][Sn]([c]1ccccc1)([c]1ccccc1)[c]1ccccc1 [Triphenyltin fluoride] | 73.0027 | inactive | inactive | inactive | inactive | inactive | inactive | inactive | inactive |  |  |  |  |  |  |  |  |  |  |  | p53 activation efficacy, primary screening [1]: 39.9627; EC50 ([1]; read-out: p53 activation EC50, cherry pick confirmation): 17.8 µM; EC50 ([1]; read-out: p53 activation EC50, primary screening): 7.69 µM; EC50 (p53RE-bla HCT-116 cells; read-out: Viability EC50, cherry pick confirmation): 3.63 µM and 5.54 µM and 3.92 µM |
| COP(=O)(OC)Oc1ccc([N+](=O)[O-])cc1 [Methylparaoxon] |  |  |  |  |  |  |  |  |  | inactive | inactive |  |  |  | inactive | inactive | inactive | inactive | inactive |  | EC50, p53 activation, primary screening [1]: inactive; Efficacy, p53 activation, primary screening [1]: inactive; EC50 [2]: 20.1 µM; EC50 [2, 4]: 20 µM |
| CCN(CC)CCNc1ccc(CO)c2sc3ccccc3c(=O)c12 [Hycanthone] |  |  |  |  |  |  |  |  |  |  |  | inactive |  | inactive | inactive | inactive | inactive | inactive | inactive | inactive | EC50 ([1]; Homo sapiens, HCT-116, read-out: EC50, p53 activation, cherry pick confirmation): 18.4 µM; Emax ([1]; Homo sapiens, HCT-116, read-out: Efficacy, p53 activation, cherry pick confirmation): 500% |
| c1cc(OCC2CO2)ccc1Cc1ccc(OCC2CO2)cc1 (stereo not shown) [Bis[4-(glycidyloxy)phenyl]methane] |  |  |  |  |  |  |  |  |  |  | 31.4403 | inactive | inactive | inactive | inactive | inactive | inactive | inactive | inactive | inactive | Efficacy, p53 activation, primary screening [1]: 46.3017; EC50 [1, 4]: 26.4 µM; EC50 ([1]; read-out: EC50, p53 activation, primary screening): 47.6 µM; Efficacy, p53 activation, primary screening [2]: inactive; EC50, p53 activation, primary screening [3]: inactive; Efficacy, p53 activation, primary screening [3]: inactive |
